Source: BindingDB's records for patent US20250115590 (Foresee Pharmaceuticals USA, 2025)

Target: Macrophage metalloelastase (Homo sapiens, UniProt P39900)
Test: MMP Inhibitory Assays
Experimental: The inhibitory effect of compounds on the rate of cleaving fluorogenic MMP substrate (Enzo, BML-P128) by recombinant human MMP-12 catalytic domain (Enzo, BML-SE138) was carried out by methods known in the art. Briefly, to each well of a 96-well black opaque plate, all the reagents were sequentially added by pipetting, and the final reaction contained 4 nM of recombinant human MMP-12 catalytic domain, […] MMP substrate, and various concentrations (0.15 nM to 10,000 nM) of tested compound dilutions in HEPES buffer (pH 7.5) containing 10 mM of CaCl2, 0.01% Brij 35 (polyoxyethylene (23) lauryl ether), and 0.1 mg/ml of BSA. The enzyme and compounds were pre-incubated on a shaker to mix in wells. After an hour of mixing, fluorogenic substrate was added to each well. Reaction without enzyme was used as a blank control in the plate. The plate was then fed into a plate reader to measure fluorescence intensity at Excitation/Emission wavelengths of 340 nm/440 nm every 10 mins for at least 1 hour at 37° C. The IC50 of each compound in MMP-12 inhibition was determined by using a readout obtained at time point 30 minutes.

Macrophage metalloelastase, sequence (P39900 whole entry): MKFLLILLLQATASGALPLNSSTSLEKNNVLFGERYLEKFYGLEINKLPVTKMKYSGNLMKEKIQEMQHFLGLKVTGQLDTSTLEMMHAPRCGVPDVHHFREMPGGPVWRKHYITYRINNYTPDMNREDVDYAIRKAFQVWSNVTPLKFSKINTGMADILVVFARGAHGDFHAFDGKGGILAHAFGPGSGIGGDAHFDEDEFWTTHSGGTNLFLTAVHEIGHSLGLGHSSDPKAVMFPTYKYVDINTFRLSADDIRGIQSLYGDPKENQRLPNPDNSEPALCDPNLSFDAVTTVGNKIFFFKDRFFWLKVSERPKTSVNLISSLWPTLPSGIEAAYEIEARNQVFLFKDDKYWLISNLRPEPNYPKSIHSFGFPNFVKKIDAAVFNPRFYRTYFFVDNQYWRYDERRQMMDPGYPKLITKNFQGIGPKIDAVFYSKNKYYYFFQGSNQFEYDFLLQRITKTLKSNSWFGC

Question: For `O=C1NC(=O)C(c2ncoc2Sc2ccc(OCc3cccc(CO)c3)cc2)N1` (configuration not stated) [US20250115590, Compound OC-9], which IC50 is on record?
Answer: > 1 µM

Question: `Cc1cccc(COc2ccc(Sc3ocnc3C3NC(=O)NC3=O)cc2)c1` (configuration not stated) [US20250115590, Compound OC-8] was tested. Which IC50 did it give?
Answer: > 1 µM
